Assay results taken from ChEMBL document CHEMBL4765379, “Synthesis and biological evaluation of diaryl urea derivatives designed as potential anticarcinoma agents using de novo structure-based lead optimization approach” (Eur J Med Chem, 2020).
The source made the active and inactive calls. The calls are words filed in the database; no cut-off is given here.

Legend:
[1] = test system: A549; assay: Antiproliferative activity against human A549 cells assessed as reduction in cell growth incubated for 48 hrs by MTT assay; assay type: functional, cell-based; settings: A549, 48 h
[2] = test system: HT-29; assay: Antiproliferative activity against human HT-29 cells assessed as reduction in cell growth incubated for 48 hrs by MTT assay; assay type: functional, cell-based; settings: HT-29, 48 h
[3] = test system: HT-29; assay: Induction of apoptosis in human HT-29 cells assessed as increase in ratio of Bax/Bcl2 at 1 to 10 uM incubated for 48 hrs by Western blot analysis; assay type: functional, cell-based; settings: dose 1-10 µM
[4] = test system: HT-29; assay: Induction of cell cycle arrest in human HT-29 cells assessed as G1 phase accumulation at 1 uM incubated for 48 hrs by PI staining based flow cytometry analysis (reference value: 56.39 %); assay type: functional
[5] = test system: HT-29; assay: Induction of cell cycle arrest in human HT-29 cells assessed as G1 phase accumulation at 10 uM incubated for 48 hrs by PI staining based flow cytometry analysis (reference value: 56.39 %); assay type: functional
[6] = test system: HT-29; assay: Induction of ROS accumulation in human HT-29 cells at 1 to 10 uM incubated for 12 hrs by […] and DAPI staining based luminescence spectrometer; assay type: functional, cell-based; settings: dose 1-10 µM
[7] = test system: HT-29; assay: Induction of apoptosis in human HT-29 cells assessed as increase in caspase3 expression incubated for 48 hrs by Western blot analysis; assay type: functional, cell-based; settings: dose 1-10 µM
[8] = test system: HT-29; assay: Induction of apoptosis in human HT-29 cells assessed as early apoptotic cells incubated for 48 hrs by annexin V-FITC and PI staining based flow cytometry analysis; assay type: functional, cell-based; settings: dose 1-10 µM
[9] = test system: HT-29; assay: Induction of cell cycle arrest in human HT-29 cells assessed as S phase accumulation at 5 uM incubated for 48 hrs by PI staining based flow cytometry analysis (reference value: 36.98 %); assay type: functional
[10] = test system: HT-29; assay: Induction of cell cycle arrest in human HT-29 cells assessed as subG1 phase accumulation at 10 uM incubated for 48 hrs by PI staining based flow cytometry analysis (reference value: 0.06 %); assay type: functional
[11] = test system: HT-29; assay: Induction of apoptosis in human HT-29 cells assessed as early apoptotic cells at 1 uM incubated for 48 hrs by annexin V-FITC and PI staining based flow cytometry analysis (reference value: 1.01 %); assay type: functional
[12] = test system: HT-29; assay: Induction of apoptosis in human HT-29 cells assessed as viable cells at 1 uM incubated for 48 hrs by annexin V-FITC and PI staining based flow cytometry analysis (reference value: 88.2 %); assay type: functional; settings: read-out: Activity
[13] = test system: HT-29; assay: Induction of apoptosis in human HT-29 cells assessed as late apoptotic cells at 10 uM incubated for 48 hrs by annexin V-FITC and PI staining based flow cytometry analysis (reference value: 1.08 %); assay type: functional
[14] = test system: HT-29; assay: Induction of cell cycle arrest in human HT-29 cells assessed as S phase accumulation at 1 uM incubated for 48 hrs by PI staining based flow cytometry analysis (reference value: 36.98 %); assay type: functional
[15] = target: Vascular endothelial growth factor receptor 2 (Homo sapiens) (UniProt P35968); assay: Inhibition of VEGFR2 in human HT-29 cells assessed as reduction in ERK1/2 phosphorylation incubated for 48 hrs by Western blot analysis; assay type: cell-based; settings: dose 1-10 µM
[16] = test system: HT-29; assay: Induction of apoptosis in human HT-29 cells assessed as late apoptotic cells at 5 uM incubated for 48 hrs by annexin V-FITC and PI staining based flow cytometry analysis (reference value: 1.08 %); assay type: functional
[17] = target: Vascular endothelial growth factor receptor 2 (Homo sapiens) (UniProt P35968); assay: Inhibition of VEGFR2 in human HT-29 cells assessed as reduction in VEGFR2 phosphorylation incubated for 48 hrs by Western blot analysis; assay type: cell-based; settings: dose 1-10 µM
[18] = test system: HT-29; assay: Induction of cell cycle arrest in human HT-29 cells assessed as G1 phase accumulation at 5 uM incubated for 48 hrs by PI staining based flow cytometry analysis (reference value: 56.39 %); assay type: functional
[19] = test system: HT-29; assay: Induction of apoptosis in human HT-29 cells assessed as viable cells at 5 uM incubated for 48 hrs by annexin V-FITC and PI staining based flow cytometry analysis (reference value: 88.2 %); assay type: functional; settings: read-out: Activity
[20] = test system: HT-29; assay: Induction of apoptosis in human HT-29 cells assessed as early apoptotic cells at 10 uM incubated for 48 hrs by annexin V-FITC and PI staining based flow cytometry analysis (reference value: 1.01 %); assay type: functional
[21] = test system: HT-29; assay: Induction of apoptosis in human HT-29 cells assessed as viable cells at 10 uM incubated for 48 hrs by annexin V-FITC and PI staining based flow cytometry analysis (reference value: 88.2 %); assay type: functional; settings: read-out: Activity
[22] = test system: HT-29; assay: Induction of cell cycle arrest in human HT-29 cells assessed as G2 phase accumulation at 1 uM incubated for 48 hrs by PI staining based flow cytometry analysis (reference value: 11.7 %); assay type: functional
[23] = target: Vascular endothelial growth factor receptor 2 (Homo sapiens) (UniProt P35968); assay: Inhibition of VEGFR2 in human HT-29 cells assessed as reduction in ERK1/2 expression incubated for 48 hrs by Western blot analysis; assay type: cell-based; settings: dose 1-10 µM
[24] = test system: HT-29; assay: Induction of cell cycle arrest in human HT-29 cells assessed as subG1 phase accumulation at 1 uM incubated for 48 hrs by PI staining based flow cytometry analysis (reference value: 0.06 %); assay type: functional
[25] = test system: HT-29; assay: Induction of apoptosis in human HT-29 cells assessed as necrotic cells at 10 uM incubated for 48 hrs by annexin V-FITC and PI staining based flow cytometry analysis (reference value: 9.68 %); assay type: functional
[26] = test system: HT-29; assay: Induction of apoptosis in human HT-29 cells assessed as necrotic cells at 1 uM incubated for 48 hrs by annexin V-FITC and PI staining based flow cytometry analysis (reference value: 9.68 %); assay type: functional
[27] = target: Vascular endothelial growth factor receptor 2 (Homo sapiens) (UniProt P35968); assay: Inhibition of VEGFR2 in human HT-29 cells assessed as reduction in c-Raf expression incubated for 48 hrs by Western blot analysis; assay type: cell-based; settings: dose 1-10 µM
[28] = test system: HT-29; assay: Induction of apoptosis in human HT-29 cells assessed as early apoptotic cells at 5 uM incubated for 48 hrs by annexin V-FITC and PI staining based flow cytometry analysis (reference value: 1.01 %); assay type: functional
[29] = test system: HT-29; assay: Induction of cell cycle arrest in human HT-29 cells assessed as G2 phase accumulation at 10 uM incubated for 48 hrs by PI staining based flow cytometry analysis (reference value: 11.7 %); assay type: functional
[30] = test system: HT-29; assay: Induction of cell cycle arrest in human HT-29 cells assessed as S phase accumulation at 10 uM incubated for 48 hrs by PI staining based flow cytometry analysis (reference value: 36.98 %); assay type: functional
[31] = test system: HT-29; assay: Induction of cell cycle arrest in human HT-29 cells assessed as subG1 phase accumulation at 5 uM incubated for 48 hrs by PI staining based flow cytometry analysis (reference value: 0.06 %); assay type: functional
[32] = test system: HT-29; assay: Induction of apoptosis in human HT-29 cells assessed as upregulation of Bax expression at 1 to 10 uM incubated for 48 hrs by Western blot analysis; assay type: functional, cell-based; settings: dose 1-10 µM
[33] = test system: HT-29; assay: Induction of apoptosis in human HT-29 cells assessed as downregulation of Bcl2 expression at 1 to 10 uM incubated for 48 hrs by Western blot analysis; assay type: functional, cell-based; settings: dose 1-10 µM
[34] = test system: HT-29; assay: Induction of cell cycle arrest in human HT-29 cells assessed as reduction in cyclin D1 level incubated for 48 hrs by Western blot analysis; assay type: functional, cell-based; settings: dose 1-10 µM
[35] = test system: HT-29; assay: Induction of cell cycle arrest in human HT-29 cells assessed as G2 phase accumulation at 5 uM incubated for 48 hrs by PI staining based flow cytometry analysis (reference value: 11.7 %); assay type: functional
[36] = test system: HT-29; assay: Induction of apoptosis in human HT-29 cells assessed as late apoptotic cells incubated for 48 hrs by annexin V-FITC and PI staining based flow cytometry analysis; assay type: functional, cell-based; settings: dose 1-10 µM
[37] = test system: HT-29; assay: Induction of apoptosis in human HT-29 cells assessed as late apoptotic cells at 1 uM incubated for 48 hrs by annexin V-FITC and PI staining based flow cytometry analysis (reference value: 1.08 %); assay type: functional
[38] = test system: HT-29; assay: Induction of apoptosis in human HT-29 cells assessed as necrotic cells at 5 uM incubated for 48 hrs by annexin V-FITC and PI staining based flow cytometry analysis (reference value: 9.68 %); assay type: functional
[39] = target: Vascular endothelial growth factor receptor 2 (Homo sapiens) (UniProt P35968); assay: Inhibition of VEGFR2 in human HT-29 cells assessed as reduction in MEK expression incubated for 48 hrs by Western blot analysis; assay type: cell-based; settings: dose 1-10 µM
[40] = test system: HT-29; assay: Induction of cell cycle arrest in human HT-29 cells assessed as reduction in CDK4 level incubated for 48 hrs by Western blot analysis; assay type: functional, cell-based; settings: dose 1-10 µM

Sequence of Vascular endothelial growth factor receptor 2 (Homo sapiens) (P35968 whole entry): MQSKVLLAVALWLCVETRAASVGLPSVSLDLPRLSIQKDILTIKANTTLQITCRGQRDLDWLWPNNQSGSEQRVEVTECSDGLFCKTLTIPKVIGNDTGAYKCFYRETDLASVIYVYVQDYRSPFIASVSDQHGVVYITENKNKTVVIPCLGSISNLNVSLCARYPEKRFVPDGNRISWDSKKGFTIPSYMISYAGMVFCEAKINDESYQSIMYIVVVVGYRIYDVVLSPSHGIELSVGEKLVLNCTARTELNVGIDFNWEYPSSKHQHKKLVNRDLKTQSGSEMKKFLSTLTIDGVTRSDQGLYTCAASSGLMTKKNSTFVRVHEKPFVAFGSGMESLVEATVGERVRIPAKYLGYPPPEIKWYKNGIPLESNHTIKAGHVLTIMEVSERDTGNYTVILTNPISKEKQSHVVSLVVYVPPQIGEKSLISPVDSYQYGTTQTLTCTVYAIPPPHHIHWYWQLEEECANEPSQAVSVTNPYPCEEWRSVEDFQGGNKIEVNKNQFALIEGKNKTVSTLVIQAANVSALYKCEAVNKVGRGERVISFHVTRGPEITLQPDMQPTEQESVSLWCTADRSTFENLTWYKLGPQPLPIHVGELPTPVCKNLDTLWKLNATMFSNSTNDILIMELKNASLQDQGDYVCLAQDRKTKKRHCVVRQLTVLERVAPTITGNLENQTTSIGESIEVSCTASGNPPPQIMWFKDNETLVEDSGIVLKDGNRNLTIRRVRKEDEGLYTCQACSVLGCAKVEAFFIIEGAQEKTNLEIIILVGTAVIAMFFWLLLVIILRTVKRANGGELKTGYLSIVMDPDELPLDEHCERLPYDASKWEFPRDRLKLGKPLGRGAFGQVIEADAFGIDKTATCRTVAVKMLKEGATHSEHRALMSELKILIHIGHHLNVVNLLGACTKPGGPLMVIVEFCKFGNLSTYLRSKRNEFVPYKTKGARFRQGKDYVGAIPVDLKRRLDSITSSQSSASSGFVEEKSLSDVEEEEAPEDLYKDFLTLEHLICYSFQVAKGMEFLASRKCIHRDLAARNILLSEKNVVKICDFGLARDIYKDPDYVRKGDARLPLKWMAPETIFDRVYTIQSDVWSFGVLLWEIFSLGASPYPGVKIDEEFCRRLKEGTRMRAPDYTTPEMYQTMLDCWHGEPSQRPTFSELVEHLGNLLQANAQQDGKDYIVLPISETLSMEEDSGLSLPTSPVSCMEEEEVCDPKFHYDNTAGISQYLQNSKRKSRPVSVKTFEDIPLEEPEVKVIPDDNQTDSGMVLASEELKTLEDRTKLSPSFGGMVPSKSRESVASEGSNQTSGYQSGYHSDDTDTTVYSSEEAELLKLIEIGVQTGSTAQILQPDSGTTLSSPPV

CC(=O)c1cccc(NC(=O)Nc2ccc(OC(=O)c3cc4cc([N+](=O)[O-])ccc4s3)cc2)c1
IC50 [1]: 61.5 µM
IC50 [2]: 457 µM

O=C(Cc1ccccc1)Nc1ccc(NC(=O)Nc2ccccc2)cc1
Activity [3]: Active
Activity [4]: 61.96%
Activity [5]: 60.9%
IC50 [1]: 0.63 µM
Activity [6]: Active
Activity [7]: Dose-dependent effect
Activity [8]: Dose-dependent effect
Activity [9]: 18.48%
Activity [10]: 3.45%
Activity [11]: 1.46%
IC50 [2]: 3.38 µM
viability at 1 µM [12]: 82.4%
Activity [13]: 5.46%
Activity [14]: 29.67%
inhibition [15]: Dose-dependent effect
Activity [16]: 2.18%
inhibition [17]: Dose-dependent effect
Activity [18]: 63.44%
viability at 5 µM [19]: 86.8%
Activity [20]: 2.22%
viability at 10 µM [21]: 85.6%
Activity [22]: 11.64%
inhibition [23]: Dose-dependent effect
Activity [24]: 0.43%
Activity [25]: 6.75%
Activity [26]: 14.2%
inhibition [27]: Dose-dependent effect
Activity [28]: 3.09%
Activity [29]: 27.49%
Activity [30]: 15.84%
Activity [31]: 7.45%
Activity [32]: Active
Activity [33]: Active
Activity [34]: Dose-dependent effect
Activity [35]: 18.18%
Activity [36]: Dose-dependent effect
Activity [37]: 1.93%
Activity [38]: 7.95%
inhibition [39]: Dose-dependent effect
Activity [40]: Dose-dependent effect

O=C(Nc1ccccc1)Nc1ccc(OC(=O)Cc2ccccc2)cc1
IC50 [1]: 153 µM
IC50 [2]: 185 µM

O=C(Nc1ccc(OC(=O)c2cc3cc([N+](=O)[O-])ccc3s2)cc1)Nc1ccc(Oc2ccccc2)cc1
IC50 [1]: 25.2 µM
IC50 [2]: 13.3 µM
